Test results reported in article PMC5359596, “A new electro-optical approach for conductance measurement: an assay for the study of drugs acting on ligand-gated ion channels” (Scientific Reports, 2017).
Values belong to the compound of their own block, whether it stands above or below them.

Key:
Format in all cases: cell-based
[1] = target: T1, TRPM2 (Homo sapiens, UniProt O94759); assay: ionChannelΩ conductance assay, HEK-293 expressing TRPM2; settings: HEK-293_TRPM2
T1 construct: host or cells: HEK-293
Protocol: (§2) Test current pulses (mono or biphasic) were administered to cells by parallel electrodes placed on the plane of the cells. Pulse length was several times the membrane time constant of the investigated cells in order to acquire images at a time of the pulse when plateau was fully established. Current intensity was set high enough to generate significant variations in the fluorescence signal, still avoiding membrane electroporation[35]. More specifically, a plot of the ΔFc/FRc values obtained at increasing current values was obtained: only current intensities giving correlative values lying on the linear part of the plot were used. […]
(§3) Images are processed off-line by a MATLAB-based Image Analysis program, developed in the laboratory, which offers the possibility to employ different filters, parameters and types of analysis in order to extract the data necessary to draw CRCs. […] More specifically, pixels were selected as part of the shape mask when the following requirements were met: to be part of the cell (recognition of object boundary from fluorescence signals); to be confined to the plasma membrane region (calculation of a ring of depth boundaries). […] In either case, mean values ± standard error (calculated from values obtained in the different sampling areas of the same well) were obtained at the various concentration of the drug and fitted by a nonlinear regression curve. […]

[2] = target: T1, TRPM2; assay: FLIPR (Calcium Assay Kit), HEK-293 expressing TRPM2; settings: HEK-293_TRPM2
Protocol: (§1) Intracellular calcium concentration was measured by: GCaMP2.1 calcium biosensor for P2RX7; Screen Quest™ Fluo-8 No. Wash Calcium Assay Kit (AAT Bioquest) for TRPV1; and Calcium Assay Kit (Molecular Devices) for TRPM2.

[3] = system: HeLa cells; assay: Optical detection of plasma membrane resistance changes in HeLa cells (conventional microscope); settings: increasing concentrations
Source text: Resistance (R) determines the magnitude of the passive changes observed in membrane potential in response to a constant current: the lower the resistance, the lower the membrane potential variation (Supplementary Figure 1). Accordingly, we investigated the possibility of using local membrane potential variations imposed by a test square current pulse to measure changes in membrane resistance. The variation of VSD fluorescence values during the current pulse, were quantified as ΔF, i.e. the difference between the plateau value reached during the electric stimulus (FS) and the pre-stimulus, resting, value (FR) (Supplementary Figure 1). ΔF values were further normalized to their respective resting values (ΔF/FR) to take into account even minimal variations of VSD fluorescence due to dye bleaching. […]
Images were processed off-line by an image analysis program developed in MATLAB (The MathWorks). […] Fluorescence intensity values were calculated as the mean of the values obtained in the selected ROIs within the 3 stimuli series administered in the different conditions (before and during the plateau phase of the pulse, in the absence and in the presence of a test compound). […]

[4] = target: T2, hTRPV1 (Homo sapiens, UniProt Q8NER1); assay: ionChannelΩ electro-optical conductance assay, CHO-K1 expressing hTRPV1; settings: scatter plot linear regression, highest capsaicin concentrations
T2 construct: host or cells: CHO-K1
Protocol: as §2, §3

[5] = target: T3, P2RX7 receptor (Homo sapiens, UniProt Q99572); assay: ionChannelΩ conductance assay, HEK-293 expressing P2RX7; settings: HEK-293_P2RX7, agonist
T3 construct: host or cells: HEK-293
T3 sequence (Q99572 1-595): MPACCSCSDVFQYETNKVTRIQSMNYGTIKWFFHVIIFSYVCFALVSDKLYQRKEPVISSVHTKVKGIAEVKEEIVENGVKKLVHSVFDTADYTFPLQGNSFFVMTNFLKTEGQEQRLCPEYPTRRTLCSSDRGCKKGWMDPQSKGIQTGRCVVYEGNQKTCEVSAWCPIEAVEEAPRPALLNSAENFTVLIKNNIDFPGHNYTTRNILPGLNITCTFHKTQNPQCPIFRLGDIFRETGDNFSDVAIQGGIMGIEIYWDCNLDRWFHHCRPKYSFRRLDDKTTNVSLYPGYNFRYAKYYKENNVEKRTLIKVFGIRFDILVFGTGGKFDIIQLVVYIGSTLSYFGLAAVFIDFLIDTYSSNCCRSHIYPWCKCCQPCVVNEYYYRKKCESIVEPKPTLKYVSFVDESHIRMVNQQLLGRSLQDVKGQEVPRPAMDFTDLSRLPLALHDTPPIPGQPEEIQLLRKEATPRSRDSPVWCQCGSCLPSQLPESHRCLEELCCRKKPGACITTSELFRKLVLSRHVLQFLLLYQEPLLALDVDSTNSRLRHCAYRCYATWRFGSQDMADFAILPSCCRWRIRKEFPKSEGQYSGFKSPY

[6] = target: T3, P2RX7 receptor; assay: FLIPR (GCaMP2.1 calcium biosensor), HEK-293 expressing P2RX7; settings: HEK-293_P2RX7, agonist
Protocol: as §1
For the P2RX7 assay, cells were preincubated in Low Calcium, Magnesium free Tyrode’s Buffer.
Reference blockers were injected at FLIPRTetra instrument and fluorescence signal was recorded. After 10 minutes a second injection of reference activators was performed and fluorescence was measured.

T1 sequence (O94759 whole entry): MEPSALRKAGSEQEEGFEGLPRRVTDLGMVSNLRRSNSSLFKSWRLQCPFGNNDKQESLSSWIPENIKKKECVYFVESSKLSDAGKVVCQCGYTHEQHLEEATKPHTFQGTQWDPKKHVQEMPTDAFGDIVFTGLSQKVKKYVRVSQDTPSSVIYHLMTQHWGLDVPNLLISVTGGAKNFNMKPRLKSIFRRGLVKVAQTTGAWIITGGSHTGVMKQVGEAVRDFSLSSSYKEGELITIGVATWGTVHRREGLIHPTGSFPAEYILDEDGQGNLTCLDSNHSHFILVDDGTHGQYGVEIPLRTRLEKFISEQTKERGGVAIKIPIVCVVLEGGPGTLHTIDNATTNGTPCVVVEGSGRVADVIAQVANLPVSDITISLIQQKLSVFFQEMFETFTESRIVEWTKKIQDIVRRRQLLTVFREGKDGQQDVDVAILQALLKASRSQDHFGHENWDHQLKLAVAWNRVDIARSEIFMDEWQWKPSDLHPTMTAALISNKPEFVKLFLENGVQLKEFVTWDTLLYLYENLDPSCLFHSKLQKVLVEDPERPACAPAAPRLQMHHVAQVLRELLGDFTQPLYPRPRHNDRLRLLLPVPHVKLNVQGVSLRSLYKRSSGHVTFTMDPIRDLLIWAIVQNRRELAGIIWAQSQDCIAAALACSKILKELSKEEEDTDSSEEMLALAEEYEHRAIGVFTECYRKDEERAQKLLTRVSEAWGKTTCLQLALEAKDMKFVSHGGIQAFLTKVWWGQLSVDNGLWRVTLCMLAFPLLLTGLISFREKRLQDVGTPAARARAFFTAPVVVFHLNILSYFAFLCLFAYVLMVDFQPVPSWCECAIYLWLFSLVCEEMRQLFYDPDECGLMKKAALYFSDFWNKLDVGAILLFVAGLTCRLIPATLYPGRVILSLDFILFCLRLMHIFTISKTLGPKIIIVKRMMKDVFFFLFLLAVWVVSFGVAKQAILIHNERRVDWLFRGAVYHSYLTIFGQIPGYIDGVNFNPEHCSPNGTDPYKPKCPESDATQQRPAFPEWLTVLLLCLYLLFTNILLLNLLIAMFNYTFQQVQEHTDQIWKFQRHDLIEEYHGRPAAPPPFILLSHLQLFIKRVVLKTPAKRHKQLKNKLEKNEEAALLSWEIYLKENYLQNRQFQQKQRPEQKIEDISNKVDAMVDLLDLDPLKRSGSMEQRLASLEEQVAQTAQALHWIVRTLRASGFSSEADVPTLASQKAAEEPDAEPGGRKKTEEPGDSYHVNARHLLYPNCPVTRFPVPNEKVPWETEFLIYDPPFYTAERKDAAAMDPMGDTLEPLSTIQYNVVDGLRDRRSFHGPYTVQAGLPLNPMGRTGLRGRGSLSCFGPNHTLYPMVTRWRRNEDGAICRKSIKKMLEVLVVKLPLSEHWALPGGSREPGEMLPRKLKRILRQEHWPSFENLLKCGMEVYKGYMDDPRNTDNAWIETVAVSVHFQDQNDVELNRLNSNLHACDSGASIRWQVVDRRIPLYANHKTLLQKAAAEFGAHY
T2 sequence (Q8NER1 whole entry): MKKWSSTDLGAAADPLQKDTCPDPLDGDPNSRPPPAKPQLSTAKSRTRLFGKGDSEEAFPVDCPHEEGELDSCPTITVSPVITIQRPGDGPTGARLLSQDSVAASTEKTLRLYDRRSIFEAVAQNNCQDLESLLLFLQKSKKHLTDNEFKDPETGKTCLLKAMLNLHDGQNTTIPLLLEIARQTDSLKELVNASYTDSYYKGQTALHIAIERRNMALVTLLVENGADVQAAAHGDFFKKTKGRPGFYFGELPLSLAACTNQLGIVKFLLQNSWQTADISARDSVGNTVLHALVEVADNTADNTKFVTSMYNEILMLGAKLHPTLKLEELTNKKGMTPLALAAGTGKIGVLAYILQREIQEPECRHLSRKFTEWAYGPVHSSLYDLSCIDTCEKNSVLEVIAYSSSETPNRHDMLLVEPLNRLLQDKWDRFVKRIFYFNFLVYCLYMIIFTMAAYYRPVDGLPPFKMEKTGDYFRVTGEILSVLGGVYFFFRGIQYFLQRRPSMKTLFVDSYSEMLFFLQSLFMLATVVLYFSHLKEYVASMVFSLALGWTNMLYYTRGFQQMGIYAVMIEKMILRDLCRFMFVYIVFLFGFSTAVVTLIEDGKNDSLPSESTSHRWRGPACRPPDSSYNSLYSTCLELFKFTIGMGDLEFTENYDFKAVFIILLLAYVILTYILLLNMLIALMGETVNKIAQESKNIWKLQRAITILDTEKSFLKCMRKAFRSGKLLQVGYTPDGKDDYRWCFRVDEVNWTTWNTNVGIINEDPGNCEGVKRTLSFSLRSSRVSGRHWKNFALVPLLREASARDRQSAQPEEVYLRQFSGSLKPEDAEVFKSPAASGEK

Compound: COC1=C(N)C(=O)c2nc(-c3nc(C(=O)O)c(C)c(-c4ccc(OC)c(OC)c4O)c3N)ccc2C1=O [streptonigrin]
EC50 [1]: 14.1 µM
EC50 [2]: 4.3 µM

Compound: Streptolysin-O: bacterial protein able to insert into the eukaryotic plasma membrane and form non-selective ion pores
VSD responses to electric square pulses (membrane resistance) [3]: progressively reduced in amplitude

unitary slope resistance, final value at increasing concentrations [4]: ~20 % of control
Compound: COc1cc(CNC(=O)CCCC/C=C/C(C)C)ccc1O [capsaicin]

Compound: 2′(3′)-O-(4-Benzoylbenzoyl)adenosine 5′-triphosphate triethylammonium salt [BzATP]
EC50 [5]: 3.4 µM
EC50 [6]: 6.35 µM
